≈ marks a conversion by molar mass, not a printed value.
Key:
[1] = test system: Mycobacterium tuberculosis; test: microbe, parasite or virus in culture; conditions: H37Rv ATCC 27294, 168 h
Description: Antimycobacterial activity against Mycobacterium tuberculosis H37Rv ATCC 27294 after 7 days by REMA method

[2] = Cytotoxicity against human HepG2 cells after 24 hrs by MTT assay; type: cell-based
[3] = Selectivity index, ratio of CC50 for human HepG2 cells to MIC90 for Mycobacterium tuberculosis H37Rv ATCC 27294; type: toxicity, cell-based; conditions: read-out: Selectivity Index
[4] = test system: Mycobacterium tuberculosis; test: microbe, parasite or virus in culture; conditions: 18b, 168 h
Description: Antimycobacterial activity against non-replicating streptomycin starved Mycobacterium tuberculosis 18b after 7 days by REMA method

[5] = Solubility of compound in water; type: physicochemical
[6] = Solubility of compound in PBS buffer; type: physicochemical
[7] = Solubility of compound in simulated gastric fluid; type: ADME, Stomach
[8] = Solubility of compound in simulated intestinal fluid; type: ADME
[9] = Cmax in Swiss mouse at 10 mg/kg, po by LC-MS/MS analysis; type: ADME, organism-based; design: dose 10 mg/kg, route oral; conditions: in vivo
[10] = Tmax in Swiss mouse at 10 mg/kg, po by LC-MS/MS analysis; type: ADME, organism-based; conditions: in vivo
[11] = AUC(0 to t) in Swiss mouse at 10 mg/kg, po by LC-MS/MS analysis; type: ADME, organism-based; conditions: in vivo
[12] = Half life in Swiss mouse at 10 mg/kg, po by LC-MS/MS analysis; type: ADME, organism-based; conditions: in vivo

| Compound | MIC90 [1] [µM] | CC50 at 24 h [2] [µM] | selectivity ratio [3] | MIC90 [4] [µM] | also measured |
| --- | --- | --- | --- | --- | --- |
| O=[N+]([O-])c1ccc(CN2CCN(c3ccc(F)cc3)CC2)o1 | 3.27 (≈ 0.998 µg/mL) |  |  |  |  |
| O=[N+]([O-])c1ccc(CN2CCN(c3ccc(Cl)cc3)CC2)o1 | 0.37 (≈ 0.119 µg/mL) | > 58 | > 11600 | 1.4 (≈ 0.45 µg/mL) |  |
| Cc1cccc(N2CCN(Cc3ccc([N+](=O)[O-])o3)CC2)c1C | 12.7 (≈ 4 µg/mL) |  |  |  |  |
| O=[N+]([O-])c1ccc(CN2CCN(c3ccccc3)CC2)o1 | 0.2 (≈ 0.0575 µg/mL) |  |  |  |  |
| COc1ccc(S(=O)(=O)N2CCN(Cc3ccc([N+](=O)[O-])o3)CC2)cc1 | 0.31 (≈ 0.118 µg/mL) |  |  |  |  |
| c1ccc(N2CCN(Cc3ccco3)CC2)cc1 | > 16.5 |  |  |  |  |
| O=[N+]([O-])c1ccc(CN2CCN(S(=O)(=O)c3ccccc3)CC2)o1 | 0.17 (≈ 0.0597 µg/mL) | > 56 | > 329 | > 22.7 |  |
| O=[N+]([O-])c1ccc(CN2CCC(c3ccccc3)CC2)o1 | 0.59 (≈ 0.169 µg/mL) |  |  |  |  |
| COc1cccc(N2CCN(Cc3ccc([N+](=O)[O-])o3)CC2)c1 | 0.047 (≈ 0.0149 µg/mL) | > 63 | > 1580 | 2.11 (≈ 0.67 µg/mL) |  |
| CS(=O)(=O)N1CCN(Cc2ccc([N+](=O)[O-])o2)CC1 | 23.1 (≈ 6.67 µg/mL) |  |  |  |  |
| O=[N+]([O-])c1ccc(CN2CCN(S(=O)(=O)c3ccc(F)cc3)CC2)o1 | 0.08 (≈ 0.0295 µg/mL) | > 54 | > 675 | > 21.6 | solubility [5]: 108 µM (≈ 40 µg/mL); solubility [6]: 54.1 µM (≈ 20 µg/mL); solubility [7]: 2170 µM (≈ 801 µg/mL); solubility [8]: 13.5 µM (≈ 4.99 µg/mL); Cmax [9]: 3.26 µM; Tmax [10]: 15 min; AUC(0-t) [11]: 4.22 µM·h; half-life [12]: 87.6 min |
| Cc1ccc(S(=O)(=O)N2CCN(Cc3ccc([N+](=O)[O-])o3)CC2)cc1 | 0.16 (≈ 0.0585 µg/mL) | > 54 | > 338 | > 21.9 |  |
| CC(=O)c1ccc(N2CCN(Cc3ccc([N+](=O)[O-])o3)CC2)cc1 | 0.3 (≈ 0.0988 µg/mL) |  |  |  |  |
| COc1cccc(S(=O)(=O)N2CCN(Cc3ccc([N+](=O)[O-])o3)CC2)c1 | 1.3 (≈ 0.496 µg/mL) |  |  |  |  |
| O=[N+]([O-])c1ccc(CN2CCN(S(=O)(=O)c3ccc(C(F)(F)F)cc3)CC2)o1 | 0.5 (≈ 0.21 µg/mL) |  |  |  |  |
| CC(=O)c1ccc(N2CCN(Cc3ccc([N+](=O)[O-])s3)CC2)cc1 | > 11.5 |  |  |  |  |

| Compound | MIC90 [1] [µM] | CC50 at 24 h [2] [µM] | selectivity ratio [3] | MIC90 [4] [µM] | also measured |
| --- | --- | --- | --- | --- | --- |
| O=[N+]([O-])c1ccc(CN2CCN(c3cccc(Cl)c3)CC2)o1 | 0.37 (≈ 0.119 µg/mL) |  |  |  |  |
| O=[N+]([O-])c1ccc(CN2CCN(c3ccc(N4CCOCC4)cc3)CC2)o1 | 0.02 (≈ 0.00745 µg/mL) | > 53 | > 2650 | 0.56 (≈ 0.209 µg/mL) | solubility [5]: 2.68 µM (≈ 0.998 µg/mL); Cmax [9]: 5.34 µM; Tmax [10]: 15 min; AUC(0-t) [11]: 4.51 µM·h; half-life [12]: 52.8 min |
| O=[N+]([O-])c1ccc(CN2CCN(c3ccccc3)CC2)s1 | > 13.1 |  |  |  |  |
| COc1ccccc1N1CCN(Cc2ccc([N+](=O)[O-])o2)CC1 | 25.2 (≈ 8 µg/mL) |  |  |  |  |
| CC(C)(C)c1ccc(N2CCN(Cc3ccc([N+](=O)[O-])o3)CC2)cc1 | 0.0072 (≈ 0.00247 µg/mL) | > 63 | > 700 | 12.6 (≈ 4.33 µg/mL) | solubility [5]: 116 µM (≈ 40 µg/mL); solubility [6]: 58.2 µM (≈ 20 µg/mL); solubility [7]: 1170 µM (≈ 400 µg/mL); solubility [8]: 2.9 µM (≈ 0.996 µg/mL); Cmax [9]: 2.35 µM; Tmax [10]: 15 min; AUC(0-t) [11]: 2.99 µM·h; half-life [12]: 242 min |
| O=[N+]([O-])c1ccc(CN2CCN(c3ccccc3F)CC2)o1 | 6.55 (≈ 2 µg/mL) |  |  |  |  |
| Cc1ccc(N2CCN(Cc3ccc([N+](=O)[O-])o3)CC2)cc1 | 13.2 (≈ 3.98 µg/mL) |  |  |  |  |
| O=[N+]([O-])c1ccc(CN2CCN(c3ccc(Cl)cc3)CC2)s1 | > 11.8 |  |  |  |  |
| O=[N+]([O-])c1ccc(CN2CCN(c3cccc(C(F)(F)F)c3)CC2)o1 | 0.33 (≈ 0.117 µg/mL) |  |  |  |  |
| COc1ccc(N2CCN(Cc3ccc([N+](=O)[O-])o3)CC2)cc1 | 0.12 (≈ 0.0381 µg/mL) |  |  |  |  |
| O=[N+]([O-])c1ccc(S(=O)(=O)N2CCN(Cc3ccc([N+](=O)[O-])o3)CC2)cc1 | 0.15 (≈ 0.0595 µg/mL) | > 50 | > 333 | 20.1 (≈ 7.97 µg/mL) |  |
| N#Cc1cccc(N2CCN(Cc3ccc([N+](=O)[O-])o3)CC2)c1 | 0.019 (≈ 0.00593 µg/mL) | > 64 | > 3200 | 1.34 (≈ 0.419 µg/mL) | solubility [5]: 256 µM (≈ 80 µg/mL); solubility [6]: 256 µM (≈ 80 µg/mL); solubility [7]: 2560 µM (≈ 801 µg/mL); solubility [8]: 32 µM (≈ 9.99 µg/mL) |
| O=[N+]([O-])c1ccc(CN2CCOCC2)o1 | 31.4 (≈ 6.66 µg/mL) |  |  |  |  |
| CC(C)(C)OC(=O)N1CCN(Cc2ccc([N+](=O)[O-])o2)CC1 | 0.048 (≈ 0.0149 µg/mL) | > 64 | > 1600 | 1.6 (≈ 0.498 µg/mL) | solubility [5]: 1290 µM (≈ 400 µg/mL); solubility [6]: 2570 µM (≈ 800 µg/mL); solubility [7]: 2570 µM (≈ 800 µg/mL); solubility [8]: 2570 µM (≈ 800 µg/mL); Cmax [9]: 3.81 µM; Tmax [10]: 15 min; AUC(0-t) [11]: 2.71 µM·h; half-life [12]: 101 min |
| COc1c(N2CCNC(C)C2)c(F)cc2c(=O)c(C(=O)O)cn(C3CC3)c12 (stereo unspecified) [GATIFLOXACIN] |  |  |  | 2.66 (≈ 0.999 µg/mL) |  |
| CO[C@H]1/C=C/O[C@@]2(C)Oc3c(C)c(O)c4c(O)c(c(/C=N/N5CCN(C)CC5)c(O)c4c3C2=O)NC(=O)/C(C)=C\C=C\[C@H](C)[C@H](O)[C@@H](C)[C@@H](O)[C@@H](C)[C@H](OC(C)=O)[C@@H]1C [RIFAMPIN] | 0.07 (≈ 0.0576 µg/mL) |  |  | 2.4 (≈ 1.98 µg/mL) |  |

— ChEMBL document CHEMBL3739354, “Nitrofuranyl Methyl Piperazines as New Anti-TB Agents: Identification, Validation, Medicinal Chemistry, and PK Studies” (ACS Med Chem Lett, 2015)
